Test results published in patent US8350027B2, “Dual-acting pyrazole antihypertensive agents” (Theravance, Inc., priority 2009, dated 2013).

Legend:
NEP enzyme = target: T1, NEP enzyme (Homo sapiens, UniProt P08473); assay: NEP enzyme inhibition assay (fluorogenic peptide substrate); format: biochemical; conditions: values given as lower bounds; * = prodrugs, may not exhibit NEP activity in an in vitro assay; read-out: NEP pIC50 (converted)
T1 construct: purchased R&D Systems, Minneapolis, Minn; 1182-ZN
Protocol: B. In Vitro Assays for the Quantitation of Inhibitor Potencies (IC50) at Human and Rat NEP, and Human ACE
The inhibitory activities of compounds at human and rat NEP and human ACE were determined using in vitro assays as described below.
Recombinant human NEP and recombinant human ACE were obtained commercially (R&D Systems, Minneapolis, Minn., catalog numbers 1182-ZN and 929-ZN, respectively). The fluorogenic peptide substrate Mca-BK2 (Mca-Arg-Pro-Pro-Gly-Phe-Ser-Ala-Phe-Lys(Dnp)-OH; Johnson et al. (2000) Anal. Biochem. 286: 112-118) was used for the human NEP and ACE assays, and Mca-RRL (Mca-DArg-Arg-Leu-(Dnp)-OH; Medeiros et al. (1997) Braz. J. Med. Biol. Res. 30:1157-1162) was used for the rat NEP assay (both from Anaspec, San Jose, Calif.).
The assays were performed in 384-well white opaque plates at room temperature using the respective fluorogenic peptides at a concentration of 10 μM in assay buffer (50 mM Tris/HCl at 25° C., 100 mM NaCl, 0.01% Tween-20, 1 μM Zn, 0.025% BSA). […] The rat NEP enzyme preparation was used at a concentration that yielded quantitative proteolysis of 3 μM of Mca-RRL within 20 minutes at room temperature.
Test compounds were diluted to 12 concentrations from 10 μM to 20 pM in Assay Buffer. Assays were started by adding 25 μL of enzyme to 12.5 μL of test compound at each of the 12 concentrations. Test compounds were allowed to equilibrate with the enzyme for 10 minutes before 12.5 μL of the fluorogenic substrates were added to initiate the reaction. Reactions were terminated by the addition of 10 μL of 3.6% glacial acetic acid after 20 minutes of incubation.
For sulfhydryl-containing test compounds, the test compounds may be diluted in Assay Buffer containing a 400 μM concentration of tris(2-carboxyethyl)phosphine hydrochloride (Thermo Scientific, Rockford, Ill.) (TCEP). The test compounds are then incubated for 40 minutes at room temperature (to allow for dimer cleavage) before adding the enzyme. Test compounds are then allowed to equilibrate with the enzyme for 20 minutes before adding the fluorogenic substrates. Reactions are terminated as above.
Plates were read on a fluorometer with excitation and emission wavelengths set to 320 nm and 405 nm, respectively. Raw data (relative fluorescence units) were normalized to % activity from the average high readings (no inhibition, 100% enzyme activity) and average low readings (full inhibition, highest inhibitor concentration, 0% enzyme activity) using three standard NEP and ACE inhibitors, respectively. Nonlinear regression of the normalized data was performed using a one site competition model (GraphPad Software, Inc., San Diego, Calif.). Data were reported as pIC50 values.

human AT1 receptor = target: T2, human AT1 receptor (Homo sapiens, UniProt P30556); assay: AT1 radioligand binding assay (displacement of [Eu]AngII); conditions: membranes of CHO-K1 cells expressing cloned human AT1 receptor; values given as lower bounds; read-out: AT1 pKi (converted)
T2 construct: expressed in transfected cells; host or cells: CHO-K1
T2 sequence (P30556 1-359): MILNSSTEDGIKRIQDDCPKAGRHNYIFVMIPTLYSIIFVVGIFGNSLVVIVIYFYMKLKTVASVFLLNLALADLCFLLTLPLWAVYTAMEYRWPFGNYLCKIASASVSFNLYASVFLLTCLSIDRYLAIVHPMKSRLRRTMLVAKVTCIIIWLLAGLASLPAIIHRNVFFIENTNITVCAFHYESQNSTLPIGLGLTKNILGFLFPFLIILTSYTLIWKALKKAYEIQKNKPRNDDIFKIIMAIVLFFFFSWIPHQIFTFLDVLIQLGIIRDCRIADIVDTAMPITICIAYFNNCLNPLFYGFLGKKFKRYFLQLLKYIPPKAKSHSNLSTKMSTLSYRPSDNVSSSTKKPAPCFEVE
Protocol: A. AT1 and AT2 Radioligand Binding Assays
These in vitro assays were used to assess the ability of test compounds to bind to the AT1 and the AT2 receptors.
Membrane Preparation from Cells Expressing Human AT1 or AT2 Receptors
Chinese hamster ovary (CHO-K1) derived cell lines stably expressing the cloned human AT1 or AT2 receptors, respectively, were grown in HAM's-F12 medium supplemented with 10% fetal bovine serum, 10 μg/ml penicillin/streptomycin, and 500 μg/ml geneticin in a 5% CO2 humidified incubator at 37° C. AT2 receptor expressing cells were grown in the additional presence of 100 nM PD123,319 (AT2 antagonist). When cultures reached 80-95% confluence, the cells were washed thoroughly in PBS and lifted with 5 mM EDTA. Cells were pelleted by centrifugation and snap frozen in MeOH-dry ice and stored at −80° C. until further use.
For membrane preparation, cell pellets were resuspended in lysis buffer (25 mM Tris/HCl pH 7.5 at 4° C., 1 mM EDTA, and one tablet of Complete Protease Inhibitor Cocktail Tablets with 2 mM EDTA per 50 mL buffer (Roche cat.#1697498, Roche Molecular Biochemicals, Indianapolis, Ind.)) and homogenized using a tight-fitting Dounce glass homogenizer (10 strokes) on ice. The homogenate was centrifuged at 1000×g, the supernatant was collected and centrifuged at 20,000×g. The final pellet was resuspended in membrane buffer (75 mM Tris/HCl pH 7.5, 12.5 mM MgCl2, 0.3 mM EDTA, 1 mM EGTA, 250 mM sucrose at 4° C.) and homogenized by extrusion through a 20G gauge needle. Protein concentration of the membrane suspension was determined by the method described in Bradford (1976) Anal Biochem. 72:248-54. Membranes were snap frozen in MeOH-dry ice and stored at −80° C. until further use.
Ligand Binding Assay to Determine Compound Affinities for the Human AT1 and AT2 Angiotensin Receptors
Binding assays were performed in 96-well Acrowell filter plates (Pall Inc., cat.#5020) in a total assay volume of 100 μL with 0.2 μg membrane protein for membranes containing the human AT1 receptor, or 2 μg membrane protein for membranes containing the human AT2 receptor in assay buffer (50 mM Tris/HCl pH 7.5 at 20° C., 5 mM MgCl2, 25 μM EDTA, 0.025% BSA). Saturation binding studies for determination of Kd values of the ligand were done using N-terminally Europium-labeled angiotensin-II ([Eu]AngII, H-(Eu-N^1)-Ahx-Asp-Arg-Val-Tyr-Ile-His-Pro-Phe-OH; PerkinElmer, Boston, Mass.) at 8 different concentrations ranging from 0.1 nM to 30 nM. […] Drugs were dissolved to a concentration of 1 mM in DMSO and from there serially diluted into assay buffer. Non-specific binding was determined in the presence of 10 μM unlabeled angiotensin-II. Assays were incubated for 120 minutes in the dark, at room temperature or 37° C., and binding reactions were terminated by rapid filtration through the Acrowell filter plates followed by three washes with 200 μL ice cold wash buffer (50 mM Tris/HCl pH 7.5 at 4° C., 5 mM MgCl2) using a Waters filtration manifold. Plates were tapped dry and incubated with 50 μl DELFIA Enhancement Solution (PerkinElmer cat.#4001-0010) at room temperature for 5 minutes on a shaker. Filter-bound [Eu]AngII was quantitated immediately on a Fusion plate reader (PerkinElmer) using Time Resolved Fluorescence (TRF). Binding data were analyzed by nonlinear regression analysis with the GraphPad Prism Software package (GraphPad Software, Inc., San Diego, Calif.) using the 3-parameter model for one-site competition. The BOTTOM (curve minimum) was fixed to the value for nonspecific binding, as determined in the presence of 10 μM angiotensin II. Ki values for drugs were calculated from observed IC50 values and the Kd value of [Eu]AngII according to the Cheng-Prusoff equation described in Cheng et al. (1973) Biochem Pharmacol. 22 (23):3099-108. Selectivities of test compounds for the AT1 receptor over the AT2 receptor were calculated as the ratio of AT2Ki/AT1Ki. […]

T1 sequence (P08473 52-750 limits assumed): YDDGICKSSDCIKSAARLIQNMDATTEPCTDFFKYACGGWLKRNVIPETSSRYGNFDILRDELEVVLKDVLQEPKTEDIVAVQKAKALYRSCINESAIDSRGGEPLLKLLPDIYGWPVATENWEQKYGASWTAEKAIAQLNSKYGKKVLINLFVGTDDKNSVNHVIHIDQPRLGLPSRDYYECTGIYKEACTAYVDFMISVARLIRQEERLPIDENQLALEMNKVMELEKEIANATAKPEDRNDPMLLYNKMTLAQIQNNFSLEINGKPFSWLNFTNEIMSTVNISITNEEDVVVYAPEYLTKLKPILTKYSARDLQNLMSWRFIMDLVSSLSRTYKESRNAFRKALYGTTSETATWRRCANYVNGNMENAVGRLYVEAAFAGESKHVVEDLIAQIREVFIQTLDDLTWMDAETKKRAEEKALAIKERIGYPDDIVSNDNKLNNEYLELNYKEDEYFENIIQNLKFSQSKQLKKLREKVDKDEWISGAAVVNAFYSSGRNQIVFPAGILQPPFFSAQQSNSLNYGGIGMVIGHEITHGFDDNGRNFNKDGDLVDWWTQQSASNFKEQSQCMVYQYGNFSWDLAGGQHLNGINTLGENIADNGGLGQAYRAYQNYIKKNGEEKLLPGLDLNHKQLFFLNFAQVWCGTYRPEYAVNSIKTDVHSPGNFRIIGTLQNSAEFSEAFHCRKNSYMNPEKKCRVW

| Compound | IC50 (NEP enzyme) [µM] | Ki (human AT1 receptor) [µM] |
| --- | --- | --- |
| CCOc1cc(C(=O)N[C@@H](CS)Cc2ccccc2)nn1Cc1ccc(-c2ccccc2-c2nnn[nH]2)cc1F [Example 3-1, 5-Ethoxy-1-[3-fluoro-2′-(1H-tetrazol-5-yl)biphenyl-4-ylmethyl]-1H-pyrazole-3-carboxylic acid ((R)-1-benzyl-2-mercaptoethyl)amide] | ≤ 0.1 | ≤ 0.01 |
| CCCc1cc(C(=O)N[C@@H](CC(=O)O)Cc2ccccc2Cl)nn1Cc1ccc(-c2ccccc2-c2nnn[nH]2)c(F)c1 [Example 3-18, (R)-4-(2-Chlorophenyl)-3-({1-[2-fluoro-2′-(1H-tetrazol-5-yl)biphenyl-4-ylmethyl]-5-propyl-1H-pyrazole-3-carbonyl}amino)butyric acid] | ≤ 1 | ≤ 0.01 |
| CCCc1cc(C(=O)N[C@H](Cc2ccccc2)[C@@H](O)C(=O)O)nn1Cc1ccc(-c2ccccc2S(=O)(=O)NC(=O)C(C)C)cc1 [Example 6-12, (2R,3R)-2-Hydroxy-3-{[1-(2′-isobutyrylsulfamoylbiphenyl-4-ylmethyl)-5-propyl-1H-pyrazole-3-carbonyl]amino}-4-phenylbutyric acid] | ≤ 1 | ≤ 0.01 |
| CCCc1cc(C(=O)N[C@H](Cc2ccccc2)[C@@H](O)C(=O)O)nn1Cc1ccc(-c2ccccc2S(=O)(=O)NC(=O)OC)cc1 [Example 5, (2R,3R)-2-hydroxy-3-(1-((2′-(N-(methoxycarbonyl)-sulfamoyl)biphenyl-4-yl)methyl)-5-propyl-1H-pyrazole-3-carboxamido)-4-phenylbutanoic Acid] | ≤ 0.1 | ≤ 0.01 |
| CCCc1cc(C(=O)N[C@@H](CC(=O)NO)Cc2ccccc2)nn1Cc1ccc(-c2ccccc2S(=O)(=O)NC(C)=O)cc1 [Example 6-18, 1-(2′-Acetylsulfamoylbiphenyl-4-ylmethyl)-5-propyl-1H-pyrazole-3-carboxylic acid ((R)-1-benzyl-2-hydroxycarbamoylethyl)amide] | ≤ 0.1 | ≤ 0.01 |

Continued, values first:

| IC50 (NEP enzyme) [µM] | Ki (human AT1 receptor) [µM] | Compound |
| --- | --- | --- |
| ≤ 0.1 | ≤ 0.01 | CCCc1cc(C(=O)N[C@H](Cc2ccccc2)[C@@H](O)C(=O)O)nn1Cc1ccc(-c2ccccc2-c2nnn[nH]2)nc1 [Example 14-1, (2R,3R)-2-Hydroxy-4-phenyl-3-[(5-propyl-1-{6-[2-(1H-tetrazol-5-yl)-phenyl]pyridin-3-ylmethyl}-1H-pyrazole-3-carbonyl)amino]butyric acid] |
| ≤ 0.1 | ≤ 0.1 | CCCc1cc(C(=O)N[C@H](Cc2ccccc2)[C@@H](O)C(=O)O)nn1Cc1ccc(-c2ccccc2C(=O)O)cc1 [Example 9-5, 4′-[3-((1R,2R)-1-Benzyl-2-carboxy-2-hydroxyethylcarbamoyl)-5-propylpyrazol-1-ylmethyl]biphenyl-2-carboxylic acid] |
| ≤ 0.1 | ≤ 0.1 | CCCc1cc(C(=O)N[C@@H](CS)Cc2ccccc2)nn1Cc1ccc(-c2ccccc2C(=O)O)cc1F [Example 8, 4′-[3-((R)-1-Benzyl-2-mercaptoethylcarbamoyl)-5-propylpyrazol-1-ylmethyl]-3′-fluorobiphenyl-2-carboxylic acid] |
| ≤ 0.1 | ≤ 0.01 | CCOc1cc(C(=O)N[C@H](Cc2ccccc2)[C@@H](O)C(=O)O)nn1Cc1ccc(-c2ccccc2-n2nn[nH]c2=O)cc1 [Example 16-7, (2R,3R)-3-({5-Ethoxy-1-[2′-(5-oxo-4,5-dihydrotetrazol-1-yl)-biphenyl-4-ylmethyl]-1H-pyrazole-3-carbonyl}amino)-2-hydroxy-4-phenylbutyric acid] |
| ≤ 1 | ≤ 0.01 | CCCc1cc(C(=O)N[C@@H](CC(=O)O)Cc2ccccc2)nn1Cc1ccc(-c2ccccc2S(=O)(=O)NC(C)=O)nc1 [Example 14-15, (R)-3-({1-[6-(2-Acetylsulfamoylphenyl)-pyridin-3-ylmethyl]-5-propyl-1H-pyrazole-3-carbonyl}-amino)-4-phenylbutyric acid] |
| ≤ 1 | ≤ 0.01 | CCCc1cc(C(=O)N[C@H](Cc2ccccc2)[C@@H](O)C(=O)O)nn1Cc1ccc(-c2ccccc2S(=O)(=O)NC(=O)c2ccncc2)cc1 [Example 7-4, (2R,3R)-2-Hydroxy-4-phenyl-3-[(5-propyl-1-{2′-[(pyridine-4-carbonyl)sulfamoyl]biphenyl-4-ylmethyl}-1H-pyrazole-3-carbonyl)amino]butyric acid] |
| ≤ 1 | ≤ 0.01 | CCCc1cc(C(=O)N[C@H](Cc2ccccc2)[C@@H](O)C(=O)O)nn1Cc1ccc(-c2ccccc2S(=O)(=O)NC(=O)NCC)cc1 [Example 7-1, (2R,3R)-3-(1-((2′(N-(ethylcarbamoyl)sulfamoyl)biphenyl-4-yl)methyl)-5-propyl-1H-pyrazole-3-carboxamido)-2-hydroxy-4-phenylbutanoic acid] |
